Reference: article PMC5518309 (ChemMedChem, 2014)
Numbered stars: 1 amine (or outer) side, 2 acyl side, 3 side chain; on linkers, the order of the positions; unused ones are H or OH. Side chains are listed from the residue outwards. Peptide text beside a SMILES is read from it. * marks the point of attachment. X1 = CN(C)c1ccc2c(c1)Oc1cc(N(C)C)ccc1C21OC(=O)c2ccc(C(=O)*)cc21; γGlu = O=C(O)[C@H](CCC(=O)[*:2])N[*:1]; Propionyl = CCC(=O)*

What was measured:
[1] = cited from earlier work
hY4R = hY4R (Homo sapiens, UniProt P50391); assay: Radioligand binding assay, displacement of [3H]-hPP
[2] = Metabolic stability in porcine liver homogenates; assay type: in vitro ADME; conditions: pig, porcine liver homogenate (supernatant)
[3] = Stability test in human blood plasma; assay type: in vitro ADME; conditions: human

hY4R, sequence (P50391 whole entry): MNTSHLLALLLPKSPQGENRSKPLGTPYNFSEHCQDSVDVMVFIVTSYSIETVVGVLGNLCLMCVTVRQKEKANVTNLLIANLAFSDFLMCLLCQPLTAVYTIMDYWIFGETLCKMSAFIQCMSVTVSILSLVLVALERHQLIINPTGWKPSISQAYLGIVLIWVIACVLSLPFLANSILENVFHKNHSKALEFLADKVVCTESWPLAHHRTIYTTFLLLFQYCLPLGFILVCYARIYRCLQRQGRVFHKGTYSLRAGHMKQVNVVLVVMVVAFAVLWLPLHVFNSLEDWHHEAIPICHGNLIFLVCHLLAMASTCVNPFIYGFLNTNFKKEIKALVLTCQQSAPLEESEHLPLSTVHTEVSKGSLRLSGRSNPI

Row | Compound | IC50 (hY4R) [nM] | further results
1 | pancreatic polypeptide [PP] | – | half-life in the circulation [1]: less than 7 min
2 | CCC(=O)N[C@@H](CCC(=O)NCCCC[C@H](NC(=O)[C@H](CC(N)=O)NC(=O)[C@@H](NC(=O)[C@H](Cc1ccc(O)cc1)NC(=O)[C@H](CCCNC(=N)N)NC(=O)[C@H](CCCNC(=N)N)NC(=O)[C@H](CC(C)C)NC(=O)[C@H](CC(=O)O)NC(=O)[C@H](C)NC(=O)[C@H](C)NC(=O)[C@H](Cc1ccc(O)cc1)NC(=O)[C@H](CCC(N)=O)NC(=O)[C@H](C)NC(=O)[C@H](CCSC)NC(=O)[C@H](CCC(N)=O)NC(=O)[C@H](CCC(=O)O)NC(=O)[C@@H]1CCCN1C(=O)[C@@H](NC(=O)[C@H](C)NC(=O)[C@H](CC(N)=O)NC(=O)[C@H](CC(=O)O)NC(=O)CNC(=O)[C@@H]1CCCN1C(=O)[C@H](Cc1ccc(O)cc1)NC(=O)[C@@H](NC(=O)[C@@H]1CCCN1C(=O)[C@H](CCC(=O)O)NC(=O)[C@H](CC(C)C)NC(=O)[C@@H]1CCCN1C(=O)c1ccc2c(c1)C1(OC2=O)c2ccc(N(C)C)cc2Oc2cc(N(C)C)ccc21)C(C)C)[C@@H](C)O)[C@@H](C)CC)C(=O)N[C@@H](CC(C)C)C(=O)N[C@H](C(=O)N[C@@H](CCCNC(=N)N)C(=O)N1CCC[C@H]1C(=O)N[C@@H](CCCNC(=N)N)C(=O)N[C@@H](Cc1ccc(O)cc1)C(N)=O)[C@@H](C)O)C(=O)O [15b, TAMRA-[K^30(E-Prop)]hPP2–36] (X1-PLEPVYPGDNATPEQMAQYAADLRRYINK([γGlu-Propionyl])LTRPRY-NH2) | – | half-life at 10 μM [2]: 1.95 ± 0.275 days; half-life at 10 μM [3]: 19.7 ± 0.721 days

More lines, main results first:

Row | IC50 (hY4R) [nM] | Compound | further results
3 | 14.9 | CCCCCCCCCCCCCCCC(=O)N[C@@H](CCC(=O)NCCCC[C@H](NC(=O)[C@H](CC(N)=O)NC(=O)[C@@H](NC(=O)[C@H](Cc1ccc(O)cc1)NC(=O)[C@H](CCCNC(=N)N)NC(=O)[C@H](CCCNC(=N)N)NC(=O)[C@H](CC(C)C)NC(=O)[C@H](CC(=O)O)NC(=O)[C@H](C)NC(=O)[C@H](C)NC(=O)[C@H](Cc1ccc(O)cc1)NC(=O)[C@H](CCC(N)=O)NC(=O)[C@H](C)NC(=O)[C@H](CCSC)NC(=O)[C@H](CCC(N)=O)NC(=O)[C@H](CCC(=O)O)NC(=O)[C@@H]1CCCN1C(=O)[C@@H](NC(=O)[C@H](C)NC(=O)[C@H](CC(N)=O)NC(=O)[C@H](CC(=O)O)NC(=O)CNC(=O)[C@@H]1CCCN1C(=O)[C@H](Cc1ccc(O)cc1)NC(=O)[C@@H](NC(=O)[C@@H]1CCCN1C(=O)[C@H](CCC(=O)O)NC(=O)[C@H](CC(C)C)NC(=O)[C@@H]1CCCN1C(=O)[C@H](C)NC(=O)c1ccc2c(c1)C(=O)OC21c2ccc(O)cc2Oc2cc(O)ccc21)C(C)C)[C@@H](C)O)[C@@H](C)CC)C(=O)N[C@@H](CC(C)C)C(=O)N[C@H](C(=O)N[C@@H](CCCNC(=N)N)C(=O)N1CCC[C@H]1C(=O)N[C@@H](CCCNC(=N)N)C(=O)N[C@@H](Cc1ccc(O)cc1)C(N)=O)[C@@H](C)O)C(=O)O [compound 6, CF-[K^30(E-Pam)]hPP] | –
4 | 8.6 | CCCCCCCCCCCCCCCC(=O)N[C@@H](CCC(=O)NCCCC[C@H](NC(=O)[C@H](C)NC(=O)[C@H](Cc1ccc(O)cc1)NC(=O)[C@H](CCC(N)=O)NC(=O)[C@H](C)NC(=O)[C@H](CCSC)NC(=O)[C@H](CCC(N)=O)NC(=O)[C@H](CCC(=O)O)NC(=O)[C@@H]1CCCN1C(=O)[C@@H](NC(=O)[C@H](C)NC(=O)[C@H](CC(N)=O)NC(=O)[C@H](CC(=O)O)NC(=O)CNC(=O)[C@@H]1CCCN1C(=O)[C@H](Cc1ccc(O)cc1)NC(=O)[C@@H](NC(=O)[C@@H]1CCCN1C(=O)[C@H](CCC(=O)O)NC(=O)[C@H](CC(C)C)NC(=O)[C@@H]1CCCN1C(=O)[C@H](C)NC(=O)c1ccc2c(c1)C(=O)OC21c2ccc(O)cc2Oc2cc(O)ccc21)C(C)C)[C@@H](C)O)C(=O)N[C@@H](CC(=O)O)C(=O)N[C@@H](CC(C)C)C(=O)N[C@@H](CCCNC(=N)N)C(=O)N[C@@H](CCCNC(=N)N)C(=O)N[C@@H](Cc1ccc(O)cc1)C(=O)N[C@H](C(=O)N[C@@H](CC(N)=O)C(=O)N[C@@H](CCSC)C(=O)N[C@@H](CC(C)C)C(=O)N[C@H](C(=O)N[C@@H](CCCNC(=N)N)C(=O)N1CCC[C@H]1C(=O)N[C@@H](CCCNC(=N)N)C(=O)N[C@@H](Cc1ccc(O)cc1)C(N)=O)[C@@H](C)O)[C@@H](C)CC)C(=O)O [compound 5, CF-[K^22(E-Pam)]hPP] | –
5 | 401 | CCCCCCCCCCCCCCCC(=O)N[C@@H](CCC(=O)NCCCC[C@H](NC(=O)[C@@H](NC(=O)[C@@H]1CCCN1C(=O)[C@H](CCC(=O)O)NC(=O)[C@H](CC(C)C)NC(=O)[C@@H]1CCCN1C(=O)[C@H](C)NC(=O)c1ccc2c(c1)C(=O)OC21c2ccc(O)cc2Oc2cc(O)ccc21)C(C)C)C(=O)N1CCC[C@H]1C(=O)NCC(=O)N[C@@H](CC(=O)O)C(=O)N[C@@H](CC(N)=O)C(=O)N[C@@H](C)C(=O)N[C@H](C(=O)N1CCC[C@H]1C(=O)N[C@@H](CCC(=O)O)C(=O)N[C@@H](CCC(N)=O)C(=O)N[C@@H](CCSC)C(=O)N[C@@H](C)C(=O)N[C@@H](CCC(N)=O)C(=O)N[C@@H](Cc1ccc(O)cc1)C(=O)N[C@@H](C)C(=O)N[C@@H](C)C(=O)N[C@@H](CC(=O)O)C(=O)N[C@@H](CC(C)C)C(=O)N[C@@H](CCCNC(=N)N)C(=O)N[C@@H](CCCNC(=N)N)C(=O)N[C@@H](Cc1ccc(O)cc1)C(=O)N[C@H](C(=O)N[C@@H](CC(N)=O)C(=O)N[C@@H](CCSC)C(=O)N[C@@H](CC(C)C)C(=O)N[C@H](C(=O)N[C@@H](CCCNC(=N)N)C(=O)N1CCC[C@H]1C(=O)N[C@@H](CCCNC(=N)N)C(=O)N[C@@H](Cc1ccc(O)cc1)C(N)=O)[C@@H](C)O)[C@@H](C)CC)[C@@H](C)O)C(=O)O [compound 3, CF-[K^7(E-Pam)]hPP] | –
